Measured values published in patent US20260226493A1, “HERBICIDE RESISTANT PLANTS” (SYNGENTA CROP PROTECTION AG, priority 2023, published 2026).

Key:
Assay in all cases: BIO3-BIO1 mutant enzyme activity in the presence of herbicide, percentage inhibition (fluorometric DAPA assay)
Assay type in all cases: biochemical
Settings in all cases: read-out: percentage inhibition
[1] = target: T1, Arabidopsis thaliana BIO3-BIO1 (BioDA) mutants (Arabidopsis thaliana, UniProt B0F481, A609I)
T1 construct: with the predicted N-terminal mitochondrial transit peptide removed; 6xHis-tag (N); thrombin cleavage site (N); made in house; host or cells: E. coli BL21 (DE3) bioA
T1 sequence (B0F481 23-833 A609I): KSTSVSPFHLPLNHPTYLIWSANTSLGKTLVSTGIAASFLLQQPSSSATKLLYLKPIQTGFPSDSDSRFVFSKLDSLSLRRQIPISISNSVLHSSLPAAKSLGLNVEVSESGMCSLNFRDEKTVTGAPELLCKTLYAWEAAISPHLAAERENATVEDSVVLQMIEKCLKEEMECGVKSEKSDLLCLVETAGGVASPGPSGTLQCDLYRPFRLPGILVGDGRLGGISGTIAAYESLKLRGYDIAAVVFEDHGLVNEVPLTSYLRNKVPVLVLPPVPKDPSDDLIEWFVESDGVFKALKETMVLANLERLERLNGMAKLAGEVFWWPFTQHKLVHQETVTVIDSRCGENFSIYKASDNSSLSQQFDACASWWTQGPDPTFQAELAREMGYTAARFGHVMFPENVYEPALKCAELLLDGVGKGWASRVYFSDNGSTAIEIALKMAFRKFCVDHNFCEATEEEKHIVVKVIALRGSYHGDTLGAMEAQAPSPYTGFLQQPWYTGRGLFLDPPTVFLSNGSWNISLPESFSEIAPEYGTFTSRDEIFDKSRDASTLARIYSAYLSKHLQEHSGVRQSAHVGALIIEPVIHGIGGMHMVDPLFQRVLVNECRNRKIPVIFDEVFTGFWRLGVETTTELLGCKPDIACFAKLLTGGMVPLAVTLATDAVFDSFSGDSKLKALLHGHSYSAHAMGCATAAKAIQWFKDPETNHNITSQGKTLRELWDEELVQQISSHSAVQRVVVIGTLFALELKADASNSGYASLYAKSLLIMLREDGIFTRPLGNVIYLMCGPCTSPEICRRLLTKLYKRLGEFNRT
In short: (§1)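 Percentage inhibition compares activity at one of three herbicide concentrations against DMSO, from o-phthalaldehyde-derivatised DAPA fluorescence (ex 410, em 470 nm). Purified N-His BIO3-BIO1 variants (50 nM, E. coli-expressed) saw herbicide 10 min at 20 °C in pH 8.6 EPPS buffer, then 20 μM KAPA plus 100 μM spermidine for 75 min at 20 °C.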

[2] = target: T2, Arabidopsis thaliana BIO3-BIO1 (BioDA) mutants (Arabidopsis thaliana, UniProt B0F481, G610H)
T2 construct: with the predicted N-terminal mitochondrial transit peptide removed; 6xHis-tag (N); thrombin cleavage site (N); made in house; host or cells: E. coli BL21 (DE3) bioA
T2 sequence (B0F481 23-833 G610H): as the sequence (B0F481 23-833 A609I) above, with I587A, G588H counted along it
In short: as §1

[3] = target: T3, Arabidopsis thaliana BIO3-BIO1 (BioDA) mutants (Arabidopsis thaliana, UniProt B0F481, A609K)
T3 construct: with the predicted N-terminal mitochondrial transit peptide removed; 6xHis-tag (N); thrombin cleavage site (N); made in house; host or cells: E. coli BL21 (DE3) bioA
T3 sequence (B0F481 23-833 A609K): as the sequence (B0F481 23-833 A609I) above, with I587K counted along it
In short: as §1

[4] = target: T4, Arabidopsis thaliana BIO3-BIO1 (BioDA) mutants (Arabidopsis thaliana, UniProt B0F481, R756S)
T4 construct: with the predicted N-terminal mitochondrial transit peptide removed; 6xHis-tag (N); thrombin cleavage site (N); made in house; host or cells: E. coli BL21 (DE3) bioA
T4 sequence (B0F481 23-833 R756S): as the sequence (B0F481 23-833 A609I) above, with I587A, R734S counted along it
In short: as §1

[5] = target: T5, Arabidopsis thaliana BIO3-BIO1 (BioDA) mutants (Arabidopsis thaliana, UniProt B0F481, P510C)
T5 construct: with the predicted N-terminal mitochondrial transit peptide removed; 6xHis-tag (N); thrombin cleavage site (N); made in house; host or cells: E. coli BL21 (DE3) bioA
T5 sequence (B0F481 23-833 P510C): as the sequence (B0F481 23-833 A609I) above, with P488C, I587A counted along it
In short: as §1

[6] = target: T6, Arabidopsis thaliana BIO3-BIO1 (BioDA) mutants (Arabidopsis thaliana, UniProt B0F481, P508L)
T6 construct: with the predicted N-terminal mitochondrial transit peptide removed; 6xHis-tag (N); thrombin cleavage site (N); made in house; host or cells: E. coli BL21 (DE3) bioA
T6 sequence (B0F481 23-833 P508L): as the sequence (B0F481 23-833 A609I) above, with P486L, I587A counted along it
In short: as §1

[7] = target: T7, Arabidopsis thaliana BIO3-BIO1 (BioDA) mutants (Arabidopsis thaliana, UniProt B0F481, S509E)
T7 construct: with the predicted N-terminal mitochondrial transit peptide removed; 6xHis-tag (N); thrombin cleavage site (N); made in house; host or cells: E. coli BL21 (DE3) bioA
T7 sequence (B0F481 23-833 S509E): as the sequence (B0F481 23-833 A609I) above, with S487E, I587A counted along it
In short: as §1

[8] = target: T8, Arabidopsis thaliana BIO3-BIO1 (BioDA) mutants (Arabidopsis thaliana, UniProt B0F481, W392G)
T8 construct: with the predicted N-terminal mitochondrial transit peptide removed; 6xHis-tag (N); thrombin cleavage site (N); made in house; host or cells: E. coli BL21 (DE3) bioA
T8 sequence (B0F481 23-833 W392G): as the sequence (B0F481 23-833 A609I) above, with W370G, I587A counted along it
In short: as §1

[9] = target: T9, Arabidopsis thaliana BIO3-BIO1 (BioDA) mutants (Arabidopsis thaliana, UniProt B0F481, F348V)
T9 construct: with the predicted N-terminal mitochondrial transit peptide removed; 6xHis-tag (N); thrombin cleavage site (N); made in house; host or cells: E. coli BL21 (DE3) bioA
T9 sequence (B0F481 23-833 F348V): as the sequence (B0F481 23-833 A609I) above, with F326V, I587A counted along it
In short: as §1

[10] = target: T10, Arabidopsis thaliana BIO3-BIO1 (BioDA) mutants (Arabidopsis thaliana, UniProt B0F481, G608E)
T10 construct: with the predicted N-terminal mitochondrial transit peptide removed; 6xHis-tag (N); thrombin cleavage site (N); made in house; host or cells: E. coli BL21 (DE3) bioA
T10 sequence (B0F481 23-833 G608E): as the sequence (B0F481 23-833 A609I) above, with G586E, I587A counted along it
In short: as §1

Q: Which results are given for `CCn1c(-c2ccc(Cl)c(Cl)c2)c(C(=O)O)c(=O)c2cc(F)ccc21` [Compound M, 2-(3,4-dichlorophenyl)-1-ethyl-6-fluoro-4-oxo-quinoline-3-carboxylic acid]?
A: inhibition at 0.2 µM [1]: 2%; inhibition at 1 µM [1]: 0%; inhibition at 5 µM [1]: 78%; inhibition at 0.2 µM [2]: 26%; inhibition at 1 µM [2]: 59%; inhibition at 5 µM [2]: 84%; inhibition at 0.2 µM [3]: 0%; inhibition at 1 µM [3]: 78%; inhibition at 5 µM [3]: 92%; inhibition at 0.2 µM [4]: 23%; inhibition at 1 µM [4]: 54%; inhibition at 5 µM [4]: 78%; inhibition at 0.2 µM [5]: 9%; inhibition at 1 µM [5]: 36%; inhibition at 5 µM [5]: 69%; inhibition at 0.2 µM [6]: 18%; inhibition at 1 µM [6]: 55%; inhibition at 5 µM [6]: 82%; inhibition at 0.2 µM [7]: 40%; inhibition at 1 µM [7]: 73%; inhibition at 5 µM [7]: 93%; inhibition at 0.2 µM [8]: 0%; inhibition at 1 µM [8]: 7%; inhibition at 5 µM [8]: 12%; inhibition at 0.2 µM [9]: 0%; inhibition at 1 µM [9]: 0%; inhibition at 5 µM [9]: 0%; inhibition at 0.2 µM [10]: 19%; inhibition at 1 µM [10]: 55%; inhibition at 5 µM [10]: 85%

Q: `CCn1c(C)c(-c2ccc(F)cc2F)c(=O)c(C(=O)O)c1-c1ccc(Cl)c(Cl)c1` [Compound C, 2-(3,4-dichlorophenyl)-5-(2,4-difluorophenyl)-1-ethyl-6-methyl-4-oxo-pyridine-3-carboxylic acid] was tested. Which inhibition at 0.2 µM [1] did it give?
A: The inhibition at 0.2 µM was 7%.

Q: And the inhibition at 1 µM [1]?
A: Its inhibition at 1 µM is 24%.

Q: What about the inhibition at 5 µM [1] of the same molecule?
A: Its inhibition at 5 µM is 42%.

Q: What about the inhibition at 0.2 µM [2] of the same molecule?
A: Its inhibition at 0.2 µM is 19%.

Q: And the inhibition at 1 µM [2]?
A: The inhibition at 1 µM was 58%.

Q: What about the inhibition at 5 µM [2] of the same molecule?
A: The inhibition at 5 µM was 82%.

Q: What about the inhibition at 0.2 µM [3] of the same molecule?
A: Its inhibition at 0.2 µM is 65%.

Q: And the inhibition at 1 µM [3]?
A: The inhibition at 1 µM was 80%.

Q: What about the inhibition at 5 µM [3] of the same molecule?
A: The inhibition at 5 µM was 87%.

Q: And the inhibition at 0.2 µM [4]?
A: Its inhibition at 0.2 µM is 24%.

Q: What about the inhibition at 1 µM [4] of the same molecule?
A: Its inhibition at 1 µM is 57%.

Q: What about the inhibition at 5 µM [4] of the same molecule?
A: Its inhibition at 5 µM is 83%.

Q: What about the inhibition at 0.2 µM [5] of the same molecule?
A: Its inhibition at 0.2 µM is 13%.

Q: What about the inhibition at 1 µM [5] of the same molecule?
A: Its inhibition at 1 µM is 53%.

Q: And the inhibition at 5 µM [5]?
A: Its inhibition at 5 µM is 78%.

Q: And the inhibition at 0.2 µM [6]?
A: The inhibition at 0.2 µM was 37%.

Q: What about the inhibition at 1 µM [6] of the same molecule?
A: The inhibition at 1 µM was 80%.

Q: And the inhibition at 5 µM [6]?
A: Its inhibition at 5 µM is 92%.

Q: And the inhibition at 0.2 µM [7]?
A: The inhibition at 0.2 µM was 57%.

Q: And the inhibition at 1 µM [7]?
A: The inhibition at 1 µM was 87%.

Q: What about the inhibition at 5 µM [7] of the same molecule?
A: The inhibition at 5 µM was 97%.

Q: And the inhibition at 0.2 µM [8]?
A: Its inhibition at 0.2 µM is 0%.

Q: What about the inhibition at 1 µM [8] of the same molecule?
A: Its inhibition at 1 µM is 20%.

Q: What about the inhibition at 5 µM [8] of the same molecule?
A: The inhibition at 5 µM was 69%.

Q: And the inhibition at 0.2 µM [9]?
A: Its inhibition at 0.2 µM is 0%.

Q: And the inhibition at 1 µM [9]?
A: Its inhibition at 1 µM is 0%.

Q: And the inhibition at 5 µM [9]?
A: Its inhibition at 5 µM is 1%.

Q: And the inhibition at 0.2 µM [10]?
A: The inhibition at 0.2 µM was 25%.

Q: And the inhibition at 1 µM [10]?
A: The inhibition at 1 µM was 52%.

Q: What about the inhibition at 5 µM [10] of the same molecule?
A: The inhibition at 5 µM was 81%.

Q: With `CCOC(=O)c1nn(-c2ccc3c(c2)OC(F)(F)C(F)(F)O3)c2cccc(C(C)=O)c2c1=O` [Compound A, ethyl 5-acetyl-4-oxo-1-(2,2,3,3-tetrafluoro-1,4-benzodioxin-6-yl)cinnoline-3-carboxylate] as the molecule, how does the inhibition at 1 µM [1] read?
A: Its inhibition at 1 µM is 24%.

Q: What about the inhibition at 1 µM [2] of the same molecule?
A: Its inhibition at 1 µM is 10%.

Q: And the inhibition at 1 µM [3]?
A: Its inhibition at 1 µM is 18%.

Q: And the inhibition at 1 µM [4]?
A: Its inhibition at 1 µM is 67%.

Q: And the inhibition at 1 µM [5]?
A: The inhibition at 1 µM was 20%.

Q: What about the inhibition at 1 µM [6] of the same molecule?
A: The inhibition at 1 µM was 34%.

Q: What about the inhibition at 1 µM [7] of the same molecule?
A: The inhibition at 1 µM was 6%.

Q: And the inhibition at 1 µM [8]?
A: Its inhibition at 1 µM is 56%.

Q: And the inhibition at 1 µM [9]?
A: The inhibition at 1 µM was 4%.

Q: What about the inhibition at 1 µM [10] of the same molecule?
A: The inhibition at 1 µM was 56%.

Q: Which inhibition at 0.01 µM [1] does the source give for `CCn1c(Cn2ccc(C(F)(F)F)n2)cc(=O)c(C(=O)O)c1-c1ccc(Cl)c(Cl)c1` [Compound L, 2-(3,4-dichlorophenyl)-1-ethyl-4-oxo-6-[[3-(trifluoromethyl)pyrazol-1-yl]methyl]pyridine-3-carboxylic acid] here?
A: Its inhibition at 0.01 µM is 29%.

Q: And the inhibition at 0.075 µM [1]?
A: The inhibition at 0.075 µM was 20%.

Q: And the inhibition at 0.5 µM [1]?
A: The inhibition at 0.5 µM was 0%.

Q: What about the inhibition at 0.01 µM [2] of the same molecule?
A: The inhibition at 0.01 µM was 7%.

Q: And the inhibition at 0.075 µM [2]?
A: The inhibition at 0.075 µM was 18%.

Q: And the inhibition at 0.5 µM [2]?
A: The inhibition at 0.5 µM was 65%.

Q: What about the inhibition at 0.01 µM [3] of the same molecule?
A: The inhibition at 0.01 µM was 36%.

Q: And the inhibition at 0.075 µM [3]?
A: Its inhibition at 0.075 µM is 52%.

Q: What about the inhibition at 0.5 µM [3] of the same molecule?
A: The inhibition at 0.5 µM was 64%.

Q: And the inhibition at 0.01 µM [5]?
A: The inhibition at 0.01 µM was 0%.

Q: What about the inhibition at 0.075 µM [5] of the same molecule?
A: Its inhibition at 0.075 µM is 38%.

Q: And the inhibition at 0.5 µM [5]?
A: Its inhibition at 0.5 µM is 77%.

Q: What about the inhibition at 0.01 µM [6] of the same molecule?
A: The inhibition at 0.01 µM was 16%.

Q: What about the inhibition at 0.075 µM [6] of the same molecule?
A: Its inhibition at 0.075 µM is 48%.

Q: And the inhibition at 0.5 µM [6]?
A: The inhibition at 0.5 µM was 80%.

Q: What about the inhibition at 0.01 µM [9] of the same molecule?
A: The inhibition at 0.01 µM was 10%.

Q: What about the inhibition at 0.075 µM [9] of the same molecule?
A: The inhibition at 0.075 µM was 15%.

Q: And the inhibition at 0.5 µM [9]?
A: Its inhibition at 0.5 µM is 11%.

Q: And the inhibition at 0.01 µM [10]?
A: Its inhibition at 0.01 µM is 31%.

Q: What about the inhibition at 0.075 µM [10] of the same molecule?
A: Its inhibition at 0.075 µM is 58%.

Q: What about the inhibition at 0.5 µM [10] of the same molecule?
A: The inhibition at 0.5 µM was 68%.
